The text below walks through data of publication PMC3160846 (PLoS ONE, 2011).

Where “and” joins values, the source holds several entries; their conditions need not be identical. Equal entries are not always repeated. Some results are limits rather than exact numbers.

For one series, the system named is KB-7D cells. The experiment in a line: Clonogenic assay, KB-7D. The series is classed as cell-based. The note with it: Homo sapiens, KB7D, VP-16 resistant, MRP1 ↑, read-out: IC50, anti-proliferative activity. The method, then: Human lung adenocarcinoma A549 cells and NTUB1 bladder cancer cells were maintained in RPMI supplied with 10% fetal bovine serum. KB-derived MDR1-expressing cell lines (i.e. KB-VIN10 and KB-S15) and NTUB1-dervided MDR1-expressing cell line (i.e. NTU0.017) were maintained in growth medium supplemented with 10 nM vincristine, 15 nM and 17 nM paclitaxel respectively. […] KB-derived MRP1-expressing cell line, KB-7D, was maintained in growth medium supplemented with 7 µM VP-16.
Two hundred cells in logarithmic growth phase were seeded in a 6-well plate. The cells were exposed to various concentrations of the test drugs for a three-generation period. At the end of the incubation period, cells were fixed and stained with 50% ethanol containing 0.5% methylene blue for 30 min. The plates were washed five times with water and allowed to air-dry. Colonies were countered manually. The IC50 value resulting from 50% inhibition of cell growth was calculated graphically as a comparison with the growth of the control group. Each value represents the average of at least three independent experiments run in triplicates.

The next series deals with T1, VEGFR2 (Homo sapiens, UniProt P35968).
T1 construct: VEGFR2 (residues V789-V1356) containing kinase domain; GST; made in house; host or cells: Sf9 insect cells
Put plainly: Kinase inhibition assay, VEGFR2. The class given is biochemical. The method, then:
VEGFR1/2 – The recombinant GST-tagged VEGFR1 (residues R781-I1338) or VEGFR2 (residues V789-V1356) containing kinase domain were expressed in Sf9 insect cells. The kinase assay was carried out in 96-well plates with the tested compound at 30°C for 120 min.
(§1) Composition of the reaction buffers used in different kinase inhibitory assays is described in Figure S3.
25 mM HEPES pH 7.4, 10 mM MgCl2, 4mM MnCl2, 0.5mM Na3VO4, 2 mM DTT, 0.02% Triton X100, 0.01% BSA, 1 mM ATP, 2 mM polyGlu4:Tyr peptide, 50~100 ng recombinant VEGFR1 or VEGFR2.

The target of another series is T2, FLT3 (Homo sapiens, UniProt P36888).
T2 construct: FLT3 kinase catalytic domain (residues Y567∼S993); made in house; host or cells: Sf9 insect cells
The experiment in a line: Kinase-Glo inhibition assay, FLT3. The series is classed as biochemical. The protocol:
FLT3 – GST-tagged FLT3-KDWT containing the FLT3 kinase catalytic domain (residues Y567∼S993) were expressed in Sf9 insect cells. The FLT3WT Kinase-Glo assays were carried out in 96-well plates at 30°C for 4 h with the tested compound.
as §1
75 ng GST-FLT3-KDWT proteins, 25 mM HEPES, pH 7.4, 4 mM MnCl2, 10 mM MgCl2, 2mM DTT, 0.02% Triton X-100, 0.1 mg/ml bovine serum albumin, 25 μM Her2 peptide substrate, 0.5 mM Na3VO4, and 1 μM ATP.

The next series addresses T3, EGFR (Homo sapiens, UniProt P00533).
T3 construct: GST-tagged EGFR (residues G696-G1022) containing kinase domain; GST; made in house; host or cells: Sf9 insect cells
The experiment in a line: Kinase inhibition assay, EGFR. The series is classed as biochemical. The protocol: EGFR – The recombinant GST-tagged EGFR (residues G696-G1022) containing kinase domain was expressed in Sf9 insect cells. The kinase assay was carried out in 96-well plates with the tested compound at 37°C for 60 min.
as §1
25 mM Tris pH 7.4 (EGFR), 10 m M MgCl2, 4 mM MnCl2, 0.5 mM Na3VO4, 2 mM DTT, 0.02% Triton X100, 0.01% BSA, […], 2 mM polyGlu4:Tyr peptide, 80~500 ng recombinant EGFR.

The target of a further series is T4, Aurora-A (Homo sapiens, UniProt O14965).
T4 construct: GST-tagged Aurora-A (residues S123-S401) containing kinase domain; GST; made in house; host or cells: Sf9 insect cells
Put plainly: In vitro kinase inhibition assay, Aurora-A. The class given is biochemical. Particulars: recombinant GST-tagged Aurora-A, 37°C, 90 min. The method, then: Aurora-A and Aurora-B kinase - The recombinant GST-tagged Aurora-A (residues S123-S401) containing kinase domain was expressed in Sf9 insect cells. The recombinant full length His-tagged Aurora-B (residues M1∼A344) was purchased from Invitrogen (PV3970). The kinase assay were carried out in 96-well plates with the tested compound at either 37°C (Aurora-A) for 90 min or 30°C (Aurora-B) for 120 min.
as §1
50 mM Tris-HCl pH 7.4, 10 mM NaCl, 10 mM MgCl2, 0.01% BSA, 5 mM ATP, 1 mM DTT and […] tetra(LRRASLG) peptide, and either 150 ng recombinant Aurora-A or 40 ng recombinant Aurora-B.

Series [1] is described as follows: Pharmacokinetic study in rats. The class given is in vivo. Particulars: 5 mg/kg i.v. The method, then:
Male Sprague-Dawley rats weighing 300–400 g each (8–12 weeks old) were obtained from BioLASCO, Taiwan Co., Ltd., Ilan, Taiwan. Animals were surgically prepared with a jugular-vein cannula one day prior to dosing and fasted overnight (∼18–20 h) prior to dosing. Water was available ad libitum throughout the experiment. Single 5 mg/kg dose of BPR1K653, as a DMA/PEG (20/80, v/v) solution, was separately administered to groups of 3 rats each intravenously by a bolus injection via the jugular-vein cannula. At 0 (prior to dosing), 2, 5, 15 and 30 min, and at 1, 2, 4, 6, 8 and 24 h after dosing, a blood sample (0.15 mL) was collected from each animal via the jugular-vein cannula and stored in ice (0–4°C). Plasma was separated from the blood by centrifugation (14,000 g for 15 min at 4°C in a Beckman Model Allegra™ 6R centrifuge) and stored in a freezer (−20°C). All samples were analyzed for the parent drug by LC-MS/MS. LC/MS/MS conditions: The chromatographic system consisted of an Agilent 1200 series LC system and an Agilent ZORBAX Eclipse XDB-C8 column (5 µm, 3.0×150 mm) was connected to a MDS Sciex API3000 tandem mass spectrometer, which was equipped with a Turbo V™ ESI in the positive scanning mode at 600°C. Data was acquired via the multiple reactions monitoring (MRM) system. The MS/MS ion transitions were monitored at m/z of 541.4/106.4 for BPR1K653. The collision energy of 58.0 V was used for the analyst, BPR1K653. A gradient HPLC method was employed for the separation. Mobile phase A consisted of water containing 0.1% formic acid, and mobile phase B consisted of acetonitrile. The gradient profile was shown as follows (min/%B): 0.0–1.2/5, 1.3–3.9/95, 4.0–5.0/5. The flow rate was set to be 1.5 mL/min. The auto-sampler was programmed to inject 15 µL sample aliquots in every 5 min. The retention time of BPR1K653 was 2.39 min. Plasma concentration data were analyzed with non-compartmental method.

T1 sequence (P35968 789-1356): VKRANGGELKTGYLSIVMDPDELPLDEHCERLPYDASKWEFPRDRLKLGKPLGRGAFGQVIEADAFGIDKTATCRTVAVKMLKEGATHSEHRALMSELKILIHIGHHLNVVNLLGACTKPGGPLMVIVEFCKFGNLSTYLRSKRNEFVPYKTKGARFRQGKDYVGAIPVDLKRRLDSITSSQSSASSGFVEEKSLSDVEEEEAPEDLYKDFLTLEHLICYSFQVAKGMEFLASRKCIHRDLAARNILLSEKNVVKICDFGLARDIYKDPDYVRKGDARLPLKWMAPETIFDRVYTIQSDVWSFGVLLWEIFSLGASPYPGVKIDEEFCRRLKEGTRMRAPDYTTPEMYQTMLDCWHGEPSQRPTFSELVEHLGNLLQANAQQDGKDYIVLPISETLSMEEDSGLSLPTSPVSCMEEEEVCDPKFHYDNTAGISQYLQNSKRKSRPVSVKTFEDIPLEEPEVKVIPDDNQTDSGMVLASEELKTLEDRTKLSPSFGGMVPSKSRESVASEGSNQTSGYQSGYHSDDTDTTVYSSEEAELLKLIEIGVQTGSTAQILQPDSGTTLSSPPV
T3 sequence (P00533 696-1022): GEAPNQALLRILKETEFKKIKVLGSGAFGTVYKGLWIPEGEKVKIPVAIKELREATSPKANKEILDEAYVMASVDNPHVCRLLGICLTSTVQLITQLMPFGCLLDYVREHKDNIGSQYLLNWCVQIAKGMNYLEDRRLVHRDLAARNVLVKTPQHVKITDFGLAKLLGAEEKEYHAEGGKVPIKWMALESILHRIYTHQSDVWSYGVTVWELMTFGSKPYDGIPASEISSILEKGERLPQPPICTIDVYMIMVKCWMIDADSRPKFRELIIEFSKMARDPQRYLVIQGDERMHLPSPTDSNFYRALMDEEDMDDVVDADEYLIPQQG
T2 sequence (P36888 567-993): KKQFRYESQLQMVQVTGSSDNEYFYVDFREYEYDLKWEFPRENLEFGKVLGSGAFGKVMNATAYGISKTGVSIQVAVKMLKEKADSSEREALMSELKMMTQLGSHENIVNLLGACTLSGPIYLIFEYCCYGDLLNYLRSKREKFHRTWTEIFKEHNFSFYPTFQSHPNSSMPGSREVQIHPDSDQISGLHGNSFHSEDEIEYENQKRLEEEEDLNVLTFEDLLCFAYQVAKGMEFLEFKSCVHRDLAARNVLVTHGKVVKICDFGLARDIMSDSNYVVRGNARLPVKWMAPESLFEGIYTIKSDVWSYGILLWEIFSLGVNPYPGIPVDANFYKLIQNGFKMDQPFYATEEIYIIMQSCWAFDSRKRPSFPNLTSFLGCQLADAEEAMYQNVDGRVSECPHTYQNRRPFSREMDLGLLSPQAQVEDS
T4 sequence (O14965 123-401): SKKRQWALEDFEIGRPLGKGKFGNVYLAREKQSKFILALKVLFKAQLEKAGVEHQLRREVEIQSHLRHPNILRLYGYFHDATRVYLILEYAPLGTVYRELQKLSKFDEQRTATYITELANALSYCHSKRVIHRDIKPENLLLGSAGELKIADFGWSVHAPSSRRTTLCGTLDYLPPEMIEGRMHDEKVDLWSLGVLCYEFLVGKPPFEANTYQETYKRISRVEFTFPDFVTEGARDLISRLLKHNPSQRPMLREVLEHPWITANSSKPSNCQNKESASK

For the molecule `CN(C)Cc1ccccc1NC(=O)Nc1ccc(CCNc2ncnc3oc(-c4ccccc4)c(Cl)c23)cc1` [BPR1K653], the half-maximal inhibitory concentration (IC50) – broadly, the point on the concentration scale where inhibition reaches its midpoint – with KB-7D cells is 19 nM; on VEGFR2 it was over 10000 nM; at FLT3 it was over 10000 nM; against EGFR, over 10000 nM; at Aurora-A it was 124 nM. Besides, the “maximum plasma concentration above the in vitro kinase inhibition IC50 of Aurora-A” value in series [1] is given as “more than 80 fold”. Besides, the “maximum plasma concentration above the in vitro kinase inhibition IC50 of Aurora-B” value in series [1] is given as over 200 fold. The maximum plasma concentration in series [1] (at 2 min after dosing, 5 mg/kg) is 10 µM and 5463 ng/mL. In series [1] (male, Sprague-Dawley, rat, plasma, iv, read-out: Area under the curve (AUC(0-inf))), the AUC(0-inf) – broadly, the area under the concentration-time curve extrapolated to infinity – was 1750 ng·h/mL. Moreover, the half-life in series [1] (male, Sprague-Dawley, rat, plasma, iv, read-out: Plasma half life (t1/2) (converted)) is 3.9 h. For the same molecule, the clearance (usually a measure of how efficiently the substance is removed, as volume per time) in series [1] (male, Sprague-Dawley, rat, plasma, iv, read-out: Total body clearance (CL)) stood at 49.3 mL/min/kg. Moreover, the Vd in series [1] (male, Sprague-Dawley, rat, plasma, iv, read-out: Volume of distribution at the steady state (Vss)) is 10.6 ± 5.1 L/kg. The concentration at 24 h in series [1] (male, Sprague-Dawley, rat, plasma, iv, 5 mg/kg, read-out: estimated plasma concentration 24 h after dosing) is 3.9 nM and 2.1 ng/mL.
